Results taken from patent US11912737B2, “19-nor neuroactive steroids and methods of use thereof” (Sage Therapeutics, Inc., priority 2013, dated 2024).

How the values were obtained:
[1] = molecular target: [35S]-TBPS binding, rat brain cortical membranes; assay: Steroid inhibition of [35S]-TBPS binding; conditions: 3 nM [35S]-TBPS, in the presence of 5 μM GABA
Experimental: Steroid Inhibition of TBPS Binding
[35S]-t-Butylbicylophorothionate (TBPS) binding assays using rat brain cortical membranes in the presence of 5 μM GABA has been described (Gee et al, J. Pharmacol. Exp. Ther. 1987, 241, 346-353; Hawkinson et al, Mol. Pharmacol. 1994, 46, 977-985; Lewin, A. H et al., Mol. Pharmacol. 1989, 35, 189-194).
Briefly, cortices are rapidly removed following decapitation of carbon dioxide-anesthetized Sprague-Dawley rats (200-250 g). The cortices are homogenized in 10 volumes of ice-cold 0.32 M sucrose using a glass/teflon homogenizer and centrifuged at 1500×g for 10 min at 4° C. The resultant supernatants are centrifuged at 10,000×g for 20 min at 4° C. to obtain the P2 pellets. The P2 pellets are resuspended in 200 mM NaCl/50 mM Na—K phosphate pH 7.4 buffer and centrifuged at 10,000×g for 10 min at 4° C. This washing procedure is repeated twice and the pellets are resuspended in 10 volumes of buffer. Aliquots (100 μL) of the membrane suspensions are incubated with 3 nM [^35S]-TBPS and 5 μL aliquots of test drug dissolved in dimethyl sulfoxide (DMSO) (final 0.5%) in the presence of 5 μM GABA. The incubation is brought to a final volume of 1.0 mL with buffer. Nonspecific binding is determined in the presence of 2 μM unlabeled TBPS and ranged from 15 to 25%. Following a 90 min incubation at room temp, the assays are terminated by filtration through glass fiber filters (Schleicher and Schuell No. 32) using a cell harvester (Brandel) and rinsed three times with ice-cold buffer. Filter bound radioactivity is measured by liquid scintillation spectrometry. Non-linear curve fitting of the overall data for each drug averaged for each concentration is done using Prism (GraphPad).
Various compounds are or can be screened to determine their potential as modulators of [^355]-TBPS binding in vitro. These assays are or can be performed in accordance with the above discussed procedures.

α1β2γ2 GABAA receptor = α1β2γ2 GABAA receptor (Homo sapiens (Human), UniProt P14867+P47870); conditions: LTK, read-out: GABA (α1β2γ2) Qpatch in Ltk, % efficacy at 10 μM, Qpatch, Ltk cells, 10 μM compound, 2 μM GABA
Experimental: (§1) LTK cells are stably transfected with the α1β2γ2 subunits of the GABA receptor and CHO cells are transiently transfected with the α4β3δ subunits via the Lipofecatamine method. Cells were passaged at a confluence of about 50-80% and then seeded onto 35 mm sterile culture dishes containing 2 ml culture complete medium without antibiotics or antimycotics.
(§2) Whole cell currents were measured with HEKA EPC-10 amplifiers using PatchMaster software or by using the high throughput QPatch platform (Sophion). […] In some cases 0.005% cremophor was also added. Intracellular (pipette) solution contained: KCl 130 mM, MgCl2 1 mM, Mg-ATP 5 mM, HEPES 10 mM, EGTA 5 mM, pH 7.2. During experiments, cells and solutions were maintained at room temperature (19° C.-30° C.). For manual patch clamp recordings, cell culture dishes were placed on the dish holder of the microscope and continuously perfused (1 ml/min) with bath solution. After formation of a Gigaohm seal between the patch electrodes and the cell (pipette resistance range: 2.5 MΩ-6.0 MΩ; seal resistance range: >1 GΩ) the cell membrane across the pipette tip was ruptured to assure electrical access to the cell interior (whole-cell patch-configuration). For experiments using the QPatch system, cells were transferred as suspension to the QPatch system in the bath solution and automated whole cell recordings were performed.
(§3) Cells were voltage clamped at a holding potential of −80 mV. For the analysis of test articles, GABA receptors were stimulated by 2 μM GABA after sequential pre-incubation of increasing concentrations of the test article. Pre-incubation duration was 30 s and the duration of the GABA stimulus was 2 s. Test articles were dissolved in DMSO to form stock solutions (10 mM). Test articles were diluted to 0.01, 0.1, 1, and 10 μM in bath solution. All concentrations of test articles were tested on each cell. The relative percentage potentiation was defined as the peak amplitude in response to GABA EC20 in the presence of the test article divided by the peak amplitude in response to GABA EC20 alone, multiplied by 100.

α4β3δ GABAA receptor = α4β3δ GABAA receptor (Homo sapiens (Human), UniProt P28472+P48169); assay: Patch clamp electrophysiology of recombinant α4β3δ GABAA receptors (CHO cells); conditions: read-out: GABA (α4β3δ) Qpatch in CHO, % efficacy at 10 μM
Experimental: as §1, §2, §3

Compound	IC50 [1]	Emax at 10 µM (α1β2γ2 GABAA receptor)	Emax at 10 µM (α4β3δ GABAA receptor)
C[C@@]1(O)CC[C@H]2[C@H](CC[C@@H]3[C@@H]2CC[C@]2(C)[C@@H](C(=O)CN4CCC(O)C4)CC[C@@H]32)C1 (stereo partly shown) [Entry 4]	100 to 500 nM	100 to 500%	
C[C@@]1(O)CC[C@H]2[C@H](CC[C@@H]3[C@@H]2CC[C@]2(C)[C@@H](C(=O)CN4CCN(S(C)(=O)=O)CC4)CC[C@@H]32)C1 [Entry 8]		> 500%	> 500%
C[C@H]1C[C@H]2[C@@H](CC[C@@H]3[C@@H]2CC[C@]2(C)[C@@H](C(=O)CN4CCOCC4)CC[C@@H]32)C[C@]1(C)O [Entry 45]		10 to 100%	> 500%
CC(=O)N1CCN(CC(=O)[C@H]2CC[C@H]3[C@@H]4CC[C@H]5C[C@](C)(O)[C@@H](C)C[C@@H]5[C@H]4CC[C@]23C)CC1 [Entry 27]		100 to 500%	100 to 500%
C[C@@]1(O)CC[C@H]2[C@H](CC[C@@H]3[C@@H]2CC[C@]2(C)[C@@H](C(=O)CN4CCCOCC4)CC[C@@H]32)C1 [Entry 58]		> 500%	
CC(=O)N1CCN(CC(=O)[C@H]2CC[C@H]3[C@@H]4CC[C@H]5C[C@](C)(O)[C@H](C)C[C@@H]5[C@H]4CC[C@]23C)CC1 [Entry 26]		100 to 500%	
C[C@]12CC[C@H]3[C@@H](CC[C@@H]4C[C@@](O)(C(F)F)CC[C@@H]43)[C@@H]1CC[C@@H]2C(=O)CN1CCN(S(C)(=O)=O)CC1 [Entry 56]		100 to 500%	
C[C@@H]1CN(CC(=O)[C@H]2CC[C@H]3[C@@H]4CC[C@@H]5C[C@](C)(O)CC[C@@H]5[C@H]4CC[C@]23C)CCO1 [Entry 6]		100 to 500%	
CC(=O)N1CCN(CC(=O)[C@H]2CC[C@H]3[C@@H]4CC[C@H]5C[C@](C)(O)CC[C@@H]5[C@H]4CC[C@]23C)CC1 [Entry 10]		100 to 500%	
